Consider 23 compounds from US12492181B2, “Gem-disubstituted piperidine melanocortin subtype-2 receptor (MC2R) antagonists and uses thereof” (Crinetics Pharmaceuticals, Inc., priority 2019, dated 2025).

A value given as a limit tells only on which side of the number the result lay.

This assay deals with T1, hMC2 receptor (crude hMC2R membranes from CRE-bla-CHO-K1 cells stably expressing hMC2 receptor and hMRAP accessory protein) (Homo sapiens, UniProt Q01718).
T1 construct: crude membrane fractions
T1 sequence (Q01718 whole entry): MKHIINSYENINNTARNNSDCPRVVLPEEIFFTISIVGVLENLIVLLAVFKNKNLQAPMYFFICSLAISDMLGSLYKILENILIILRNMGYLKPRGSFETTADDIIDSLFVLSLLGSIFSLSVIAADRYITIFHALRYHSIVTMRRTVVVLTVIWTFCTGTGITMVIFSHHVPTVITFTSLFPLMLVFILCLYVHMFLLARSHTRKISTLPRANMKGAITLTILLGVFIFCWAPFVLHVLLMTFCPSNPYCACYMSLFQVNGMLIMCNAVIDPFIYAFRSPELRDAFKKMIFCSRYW
T1 sequence (Q8TCY5 whole entry partner): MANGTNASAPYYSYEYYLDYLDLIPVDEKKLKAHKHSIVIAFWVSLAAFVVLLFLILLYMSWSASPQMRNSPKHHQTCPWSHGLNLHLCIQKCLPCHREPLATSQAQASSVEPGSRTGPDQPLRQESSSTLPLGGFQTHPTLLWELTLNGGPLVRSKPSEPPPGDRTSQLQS
Kind of assay: hMC2 membrane binding assay ([125I]ACTH (1-39) Tyr23, SPA). The settings on record: displacement of 0.2 nM [125I]ACTH (1-39) Tyr23 from hMC2R membranes, 1.5 hours at room temperature; read-out: MC2R binding potency. As to the method: Crude membrane fractions are prepared from CRE-bla-CHO-K1 cells stably expressing hMC2 receptor and hMRAP accessory protein (Thermo Fisher). The cells are grown to 85-100% confluence on standard tissue culture dishes in GlutaMax DMEM growth media (Gibco) with following additives: 10% dialyzed FBS (Gemini), 0.1 mM NEAA (Gibco), 25 mM HEPES (Gibco), 5 μg/mL blasticidin (Goldbio), 100 μg/mL zeocin (Invitrogen), 600 μg/mL hygromycin (Goldbio). To prepare membranes, cells are scraped and collected in 1× Dulbecco's phosphate buffered saline (Corning) and then pelleted at 1000 RPM's. The cell pellet is reconstituted in membrane preparation buffer (20 mM HEPES, 6 mM MgCl2 and 1 mM EGTA, protease inhibitor tablets (Pierce) adjusted to pH 7.4), homogenized using a dounce homogenizer, and the resulting membrane fraction is pelleted by centrifugation at 12,000 RPM's. The membrane pellet is resuspended in membrane preparation buffer, snap freezed and stored at −80° C. for later use.
Binding Assay for hMC2 Antagonists Protocol:
The hMC2 membrane binding assay utilizes the following components: radiolabel [^125I]ACTH (1-39) Tyr23 (PerkinElmer), wheatgerm agglutinin coated PVT SPA beads (PerkinElmer), crude hMC2R membranes, and compounds. Briefly hMC2R membranes are incubated with SPA beads in binding assay buffer (50 mM HEPES, 5 mM MgCl2, 1 mM CaCl2), 0.20% BSA, protease inhibitor tablets (Pierce) adjusted to pH7.4) prior to assay initiation. […] Assay plates are read using a Top Count NXT and Ki values for compounds are determined using a GraphPad Prism 6 non-linear regression analysis.
Consider `CCOc1ncccc1-c1ccc(C2(NC(=O)CN(C)C)CCN(c3ccc(Cl)cc3C#N)CC2)cn1` [Compound 2-38, N-[1-(4-chloro-2-cyanophenyl)-4-{2′-ethoxy-[2,3′-bipyridin]-5-yl}piperidin-4-yl]-2-(dimethylamino)acetamide], for which the Ki is under 10 nM.

As for `CCOc1ncccc1-c1ccc(C2(OCCN(C)C)CCN(c3ccc(C(F)(F)F)cc3C#N)CC2)cc1` [Compound 2-1, 2-{4-[2-(dimethylamino)ethoxy]-4-[4-(2-ethoxypyridin-3-yl)phenyl]piperidin-1-yl}-5-(trifluoromethyl)benzonitrile], the Ki lay in the range of 10 to 100 nM.

As to `CN1CC(C(=O)NC2(c3ccc(-c4cccn4C)nc3)CCN(c3ccc(C(F)(F)F)cc3C#N)CC2)C1` [Compound 2-45, N-{1-[2-cyano-4-(trifluoromethyl)phenyl]-4-[6-(1-methyl-1H-pyrrol-2-yl)pyridin-3-yl]piperidin-4-yl}-1-methylazetidine-3-carboxamide], the Ki was under 10 nM.

On to `CCOc1ncccc1-c1ccc(C2(C(=O)NC3CN(C)C3)CCN(c3ccc(C(F)(F)F)cc3C#N)CC2)cn1` [Compound 1-19, 1-[2-cyano-4-(trifluoromethyl)phenyl]-4-{2′-ethoxy-[2,3′-bipyridin]-5-yl}-N-(1-methylazetidin-3-yl)piperidine-4-carboxamide], for which the Ki is under 10 nM.

With `CCOc1ncccc1-c1ccc(C2(C(=O)NC[C@@H](CO)N(C)C)CCN(c3ccc(C(F)(F)F)cc3C#N)CC2)cn1` [Compound 1-48, 1-[2-cyano-4-(trifluoromethyl)phenyl]-N-[(2S)-2-(dimethylamino)-3-hydroxypropyl]-4-{2′-ethoxy-[2,3′-bipyridin]-5-yl}piperidine-4-carboxamide], the Ki was under 10 nM.

Take `CCOc1ccccc1-c1ncc(C2(C(=O)N[C@H]3CCN(C)C3)CCN(c3ccc(C(F)(F)F)nc3C#N)CC2)cc1F` [Compound 1-125, 1-[2-cyano-6-(trifluoromethyl)pyridin-3-yl]-4-[6-(2-ethoxyphenyl)-5-fluoropyridin-3-yl]-N-[(3S)-1-methylpyrrolidin-3-yl]piperidine-4-carboxamide]: the Ki was under 10 nM.

Regarding `CCOc1ccccc1-c1ccc(C2(C(=O)N[C@H]3CCN(C)C3)CCN(c3c(F)cc(Cl)cc3C#N)CC2)cn1` [Compound 1-111, 1-(4-chloro-2-cyano-6-fluorophenyl)-4-[6-(2-ethoxyphenyl)pyridin-3-yl]-N-[(3S)-1-methylpyrrolidin-3-yl]piperidine-4-carboxamide], the Ki was under 10 nM.

For the compound `CNCCNC(=O)C1(c2cnc(-c3cccnc3OC)c(F)c2)CCN(c2ccc(C(F)(F)F)cc2F)CC1` [Compound 1-301, 4-{3-fluoro-2′-methoxy-[2,3′-bipyridin]-5-yl}-1-[2-fluoro-4-(trifluoromethyl)phenyl]-N-[2-(methylamino)ethyl]piperidine-4-carboxamide], the Ki was under 10 nM.

Regarding `CN1[C@@H]2CC[C@H]1[C@@H](NC(=O)C1(c3ccc(-c4cccn4C)nc3)CCN(c3ccc(C(F)(F)F)cc3C#N)CC1)C2` (racemic) [Compound 1-251, rac-1-[2-cyano-4-(trifluoromethyl)phenyl]-4-[6-(1-methyl-1H-pyrrol-2-yl)pyridin-3-yl]-N-[(1S,2S,4R)-7-methyl-7-azabicyclo[2.2.1]heptan-2-yl]piperidine-4-carboxamide], the Ki fell in the range of 10 to 100 nM.

Consider `CCOc1ncccc1-c1ccc(C2(C(=O)NCCN(C)C)CCN(c3ccc(C(F)(F)F)cc3F)CC2)nn1` [Compound 1-335, N-[2-(dimethylamino)ethyl]-4-[6-(2-ethoxypyridin-3-yl)pyridazin-3-yl]-1-[2-fluoro-4-(trifluoromethyl)phenyl]piperidine-4-carboxamide], for which the Ki was under 10 nM.

Take `COc1ccccc1-c1ccc(C2(C(=O)NCC3CN(C)C3)CCN(c3ccc(C(F)(F)F)cc3C#N)CC2)cn1` [Compound 1-211, 1-[2-cyano-4-(trifluoromethyl)phenyl]-4-[6-(2-methoxyphenyl)pyridin-3-yl]-N-[(1-methylazetidin-3-yl)methyl]piperidine-4-carboxamide]: the Ki is under 10 nM.

As to `CCOc1ncccc1-c1ccc(C2(C(=O)NCCN(C)C)CCN(c3ccc(C(F)(F)F)cc3C#N)CC2)cc1` [Compound 1-8, 1-[2-cyano-4-(trifluoromethyl)phenyl]-N-[2-(dimethylamino)ethyl]-4-[4-(2-ethoxypyridin-3-yl)phenyl]piperidine-4-carboxamide], the Ki was under 10 nM.

As for `CN1CC[C@H](C(=O)NC2(c3ccc(-c4cccn4C)nc3)CCN(c3ccc(C(F)(F)F)cc3C#N)CC2)C1` [Compound 2-46, (3S)—N-{1-[2-cyano-4-(trifluoromethyl)phenyl]-4-[6-(1-methyl-1H-pyrrol-2-yl)pyridin-3-yl]piperidin-4-yl}-1-methylpyrrolidine-3-carboxamide], the Ki is under 10 nM.

With `COc1sccc1-c1ccc(C2(C(=O)N[C@H]3CCN(C)C3)CCN(c3ccc(C(F)(F)F)cc3Cl)CC2)cn1` [Compound 1-167, 1-[2-chloro-4-(trifluoromethyl)phenyl]-4-[6-(2-methoxythiophen-3-yl)pyridin-3-yl]-N-[(3S)-1-methylpyrrolidin-3-yl]piperidine-4-carboxamide], the Ki is under 10 nM.

As to `CN1CC[C@@H](NC(=O)C2(c3ccc(-c4ccccc4OC4CC4)nc3)CCN(c3ccc(C(F)(F)F)cc3C#N)CC2)C1` [Compound 1-89, 1-[2-cyano-4-(trifluoromethyl)phenyl]-4-[6-(2-cyclopropoxyphenyl)pyridin-3-yl]-N-[(3R)-1-methylpyrrolidin-3-yl]piperidine-4-carboxamide], the Ki is under 10 nM.

On to `CN1CC[C@H](OC(=O)NC2(c3ccc(-c4cccn4C)nc3)CCN(c3ccc(C(F)(F)F)cc3C#N)CC2)C1` [Compound 2-42, (3S)-1-methylpyrrolidin-3-yl N-{1-[2-cyano-4-(trifluoromethyl)phenyl]-4-[6-(1-methyl-1H-pyrrol-2-yl)pyridin-3-yl]piperidin-4-yl}carbamate], for which the Ki was under 10 nM.

With `Cn1cccc1-c1ccc(C2(C(=O)N[C@@H]3C[C@H]3N)CCN(c3ccc(C(F)(F)F)cc3C#N)CC2)cn1` (racemic) [Compound 1-259, rac-N-[(1R,2R)-2-aminocyclopropyl]-1-[2-cyano-4-(trifluoromethyl)phenyl]-4-[6-(1-methyl-1H-pyrrol-2-yl)pyridin-3-yl]piperidine-4-carboxamide], the Ki was 10 to 100 nM.

Regarding `CCOc1ncccc1-c1ccc(C2(C(=O)NC3CN(C)CC3O)CCN(c3ccc(C(F)(F)F)cc3C#N)CC2)cn1` (single isomer, unassigned) [Compound 1-46, 1-[2-cyano-4-(trifluoromethyl)phenyl]-4-{2′-ethoxy-[2,3′-bipyridin]-5-yl}-N-[(3R,4R)*-4-hydroxy-1-methylpyrrolidin-3-yl]piperidine-4-carboxamide], the Ki was under 10 nM.

Regarding `CCOc1ncccc1-c1ccc(C2(C(=O)N[C@@H]3CCN(C)C3)CCN(c3ccc(C(F)(F)F)cc3C#N)CC2)cc1F` [Compound 1-75, 1-[2-cyano-4-(trifluoromethyl)phenyl]-4-[4-(2-ethoxypyridin-3-yl)-3-fluorophenyl]-N-[(3R)-1-methylpyrrolidin-3-yl]piperidine-4-carboxamide], the Ki is under 10 nM.

Turning to `COc1ccccc1-c1ccc(C2(C(=O)N[C@@H]3CN4CCC3CC4)CCN(c3ccc(C(F)(F)F)cc3C#N)CC2)cn1` [Compound 1-218, N-[(3S)-1-azabicyclo[2.2.2]octan-3-yl]-1-[2-cyano-4-(trifluoromethyl)phenyl]-4-[6-(2-methoxyphenyl)pyridin-3-yl]piperidine-4-carboxamide], the Ki was under 10 nM.

Turning to `COc1ccccc1-c1ncc(C2(C(=O)NCCN(C)C)CCN(c3ccc(C(F)(F)F)cc3C#N)CC2)cc1F` [Compound 1-198, 1-[2-cyano-4-(trifluoromethyl)phenyl]-N-[2-(dimethylamino)ethyl]-4-[5-fluoro-6-(2-methoxyphenyl)pyridin-3-yl]piperidine-4-carboxamide], the Ki was under 10 nM.

For `CC(C)CCn1nccc1-c1ccc(C2(C(=O)N[C@@H]3CCN(C)C3)CCN(c3ccc(C(F)(F)F)cc3C#N)CC2)cn1` [Compound 1-70, 1-[2-cyano-4-(trifluoromethyl)phenyl]-4-{6-[1-(3-methylbutyl)-1H-pyrazol-5-yl]pyridin-3-yl}-N-[(3R)-1-methylpyrrolidin-3-yl]piperidine-4-carboxamide], the Ki was 10 to 100 nM.

As for `CN1CC[C@@H](NC(=O)C2(c3ccc(-c4ccccc4OC(F)F)nc3)CCN(c3ccc(C(F)(F)F)cc3C#N)CC2)C1` [Compound 1-114, 1-[2-cyano-4-(trifluoromethyl)phenyl]-4-{6-[2-(difluoromethoxy)phenyl]pyridin-3-yl}-N-[(3R)-1-methylpyrrolidin-3-yl]piperidine-4-carboxamide], the Ki was under 10 nM.
